Source: PubChem BioAssay AID2060353 (Molecular Pharmacology Branch, DTP, NCI, 2025)
Where “and” joins values, the source holds several entries; their conditions need not be identical. Identical values can stand only once.

Tested on: 521955-158-R2-J5-PDC spheroids with stroma, growth inhibition
Assay: Anticancer human tumor 521955-158-R2-J5-PDC patient-derived pancreatic carcinoma cell line growth inhibition [TAK]
Details: for viability, T/C: stronger effect = lower value
In short: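 Spheroids of 60% malignant cells, 25% HUVEC and 15% hMSC were exposed to targeted agents combined with TAK-243 or ipatasertib. Concentrations started at or near clinical Cmax (10 microM if unknown) and descended in half-log steps.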

[1] = curve of first compound, second compound 0.3 µM
[2] = curve of first compound, second compound 0.949 µM
[3] = curve of first compound, second compound 3 µM
[4] = curve of first compound, second compound 9.49 µM
[5] = curve of first compound, second compound 30 µM
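Also: spheroids exposed to drugs for seven days before readout.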
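For viability, T/C in this document: 100% = DMSO vehicle control viability.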

Compound: CC(C)(C)c1nc(-c2cccc(NS(=O)(=O)c3c(F)cccc3F)c2F)c(-c2ccnc(N)n2)s1 + CC(C)NCC(C(=O)N1CCN(c2ncnc3c2C(C)CC3O)CC1)c1ccc(Cl)cc1
- IC50 [1]: > 10000 nM
- IC50 [2]: 9730 nM
- IC50 [3]: 6270 nM
- IC50 [4]: 4960 nM
- IC50 [5]: 1070 nM
- viability, T/C (second compound 0.3 µM, first compound 0.0316 µM): 115%
- viability, T/C (second compound 0.3 µM, first compound 0.1 µM): 135%
- viability, T/C (second compound 0.3 µM, first compound 0.316 µM): 135%
- viability, T/C (second compound 0.3 µM, first compound 1 µM): 134%
- viability, T/C (second compound 0.3 µM, first compound 3.16 µM): 96.8%
- viability, T/C (second compound 0.3 µM, first compound 10 µM): 60.3%
- viability, T/C (second compound 0.949 µM, first compound 0.0316 µM): 116%
- viability, T/C (second compound 0.949 µM, first compound 0.1 µM): 117%
- viability, T/C (second compound 0.949 µM, first compound 0.316 µM): 109%
- viability, T/C (second compound 0.949 µM, first compound 1 µM): 100%
- viability, T/C (second compound 0.949 µM, first compound 3.16 µM): 79.5%
- viability, T/C (second compound 0.949 µM, first compound 10 µM): 49.1%
- viability, T/C (second compound 3 µM, first compound 0.0316 µM): 89.8%
- viability, T/C (second compound 3 µM, first compound 0.1 µM): 93.8%
- viability, T/C (second compound 3 µM, first compound 0.316 µM): 72.2%
- viability, T/C (second compound 3 µM, first compound 1 µM): 92.1%
- viability, T/C (second compound 3 µM, first compound 3.16 µM): 75.4%
- viability, T/C (second compound 3 µM, first compound 10 µM): 32.8%
- viability, T/C (second compound 9.49 µM, first compound 0.0316 µM): 92.3%
- viability, T/C (second compound 9.49 µM, first compound 0.1 µM): 83.9%
- viability, T/C (second compound 9.49 µM, first compound 0.316 µM): 65.1%
- viability, T/C (second compound 9.49 µM, first compound 1 µM): 66.2%
- viability, T/C (second compound 9.49 µM, first compound 3.16 µM): 71.4%
- viability, T/C (second compound 9.49 µM, first compound 10 µM): 33.4%
- viability, T/C (second compound 30 µM, first compound 0.0316 µM): 59.7%
- viability, T/C (second compound 30 µM, first compound 0.1 µM): 56.7%
- viability, T/C (second compound 30 µM, first compound 0.316 µM): 50.9%
- viability, T/C (second compound 30 µM, first compound 1 µM): 51.2%
- viability, T/C (second compound 30 µM, first compound 3.16 µM): 44.8%
- viability, T/C (second compound 30 µM, first compound 10 µM): 28.7%

Compound: COc1c(OCCCN2CCOCC2)ccc2c3n(c(=NC(=O)c4cnc(N)nc4)nc12)CCN3
- viability, T/C (compound 0.00316 µM): 96.6% and 79.7%
- viability, T/C (compound 0.01 µM): 71.7% and 68.7%
- viability, T/C (compound 0.0316 µM): 48.8% and 53.6%
- viability, T/C (compound 0.1 µM): 29.3%
- viability, T/C (compound 0.316 µM): 9.38% and 8.89%
- viability, T/C (compound 1 µM): 8.06% and 7.65%
- IC50 (curve of compound): 28.8 nM and 36.1 nM

Compound: CC(=O)Nc1cccc(-n2c(=O)n(C3CC3)c(=O)c3c(Nc4ccc(I)cc4F)n(C)c(=O)c(C)c32)c1 + CC(C)NCC(C(=O)N1CCN(c2ncnc3c2C(C)CC3O)CC1)c1ccc(Cl)cc1
- IC50 [1]: 0.714 nM
- IC50 [2]: 0.283 nM
- IC50 [3]: 0.267 nM
- IC50 [4]: 0.394 nM
- IC50 [5]: 0.109 nM
- viability, T/C (second compound 0.3 µM, first compound 94.9 pM): 94.6%
- viability, T/C (second compound 0.3 µM, first compound 0.0003 µM): 67.8%
- viability, T/C (second compound 0.3 µM, first compound 0.000949 µM): 40.3%
- viability, T/C (second compound 0.3 µM, first compound 0.003 µM): 33.8%
- viability, T/C (second compound 0.3 µM, first compound 0.00949 µM): 29.3%
- viability, T/C (second compound 0.3 µM, first compound 0.03 µM): 17.7%
- viability, T/C (second compound 0.949 µM, first compound 94.9 pM): 75.4%
- viability, T/C (second compound 0.949 µM, first compound 0.0003 µM): 46.7%
- viability, T/C (second compound 0.949 µM, first compound 0.000949 µM): 31.9%
- viability, T/C (second compound 0.949 µM, first compound 0.003 µM): 19.5%
- viability, T/C (second compound 0.949 µM, first compound 0.00949 µM): 11.9%
- viability, T/C (second compound 0.949 µM, first compound 0.03 µM): 5.36%
- viability, T/C (second compound 3 µM, first compound 94.9 pM): 62.6%
- viability, T/C (second compound 3 µM, first compound 0.0003 µM): 46.9%
- viability, T/C (second compound 3 µM, first compound 0.000949 µM): 37.6%
- viability, T/C (second compound 3 µM, first compound 0.003 µM): 22.1%
- viability, T/C (second compound 3 µM, first compound 0.00949 µM): 12.8%
- viability, T/C (second compound 3 µM, first compound 0.03 µM): 4.27%
- viability, T/C (second compound 9.49 µM, first compound 94.9 pM): 91.6%
- viability, T/C (second compound 9.49 µM, first compound 0.0003 µM): 53.6%
- viability, T/C (second compound 9.49 µM, first compound 0.000949 µM): 33.2%
- viability, T/C (second compound 9.49 µM, first compound 0.003 µM): 20%
- viability, T/C (second compound 9.49 µM, first compound 0.00949 µM): 10.8%
- viability, T/C (second compound 9.49 µM, first compound 0.03 µM): 4.02%
- viability, T/C (second compound 30 µM, first compound 94.9 pM): 51.5%
- viability, T/C (second compound 30 µM, first compound 0.0003 µM): 38.6%
- viability, T/C (second compound 30 µM, first compound 0.000949 µM): 18.3%
- viability, T/C (second compound 30 µM, first compound 0.003 µM): 8.52%
- viability, T/C (second compound 30 µM, first compound 0.00949 µM): 3.18%
- viability, T/C (second compound 30 µM, first compound 0.03 µM): 0.96%

Compound: CC(C)CC(NC(=O)C(Cc1ccccc1)NC(=O)c1cnccn1)B(O)O (configuration not stated) + CC(C)NCC(C(=O)N1CCN(c2ncnc3c2C(C)CC3O)CC1)c1ccc(Cl)cc1
- IC50 [1]: 5.69 nM
- IC50 [2]: 5.25 nM
- IC50 [3]: 4.97 nM
- IC50 [4]: 5.95 nM
- IC50 [5]: 3.86 nM
- viability, T/C (second compound 0.3 µM, first compound 31.6 pM): 105%
- viability, T/C (second compound 0.3 µM, first compound 0.0001 µM): 101%
- viability, T/C (second compound 0.3 µM, first compound 0.000316 µM): 91.4%
- viability, T/C (second compound 0.3 µM, first compound 0.001 µM): 92.8%
- viability, T/C (second compound 0.3 µM, first compound 0.00316 µM): 93.9%
- viability, T/C (second compound 0.3 µM, first compound 0.01 µM): 7.88%
- viability, T/C (second compound 0.949 µM, first compound 31.6 pM): 80.2%
- viability, T/C (second compound 0.949 µM, first compound 0.0001 µM): 85.4%
- viability, T/C (second compound 0.949 µM, first compound 0.000316 µM): 78.1%
- viability, T/C (second compound 0.949 µM, first compound 0.001 µM): 82.6%
- viability, T/C (second compound 0.949 µM, first compound 0.00316 µM): 91.8%
- viability, T/C (second compound 0.949 µM, first compound 0.01 µM): 7.37%
- viability, T/C (second compound 3 µM, first compound 31.6 pM): 70%
- viability, T/C (second compound 3 µM, first compound 0.0001 µM): 81.6%
- viability, T/C (second compound 3 µM, first compound 0.000316 µM): 76.6%
- viability, T/C (second compound 3 µM, first compound 0.001 µM): 78.2%
- viability, T/C (second compound 3 µM, first compound 0.00316 µM): 81.8%
- viability, T/C (second compound 3 µM, first compound 0.01 µM): 7.09%
- viability, T/C (second compound 9.49 µM, first compound 31.6 pM): 100%
- viability, T/C (second compound 9.49 µM, first compound 0.0001 µM): 110%
- viability, T/C (second compound 9.49 µM, first compound 0.000316 µM): 111%
- viability, T/C (second compound 9.49 µM, first compound 0.001 µM): 94.3%
- viability, T/C (second compound 9.49 µM, first compound 0.00316 µM): 113%
- viability, T/C (second compound 9.49 µM, first compound 0.01 µM): 4.23%
- viability, T/C (second compound 30 µM, first compound 31.6 pM): 54.3%
- viability, T/C (second compound 30 µM, first compound 0.0001 µM): 64.6%
- viability, T/C (second compound 30 µM, first compound 0.000316 µM): 56.2%
- viability, T/C (second compound 30 µM, first compound 0.001 µM): 56.7%
- viability, T/C (second compound 30 µM, first compound 0.00316 µM): 68.6%
- viability, T/C (second compound 30 µM, first compound 0.01 µM): 1.83%
